system: LpxC enzyme; assay: LpxC enzyme assay (RapidFire high-throughput mass spectrometry); type: biochemical; conditions: concentration 0.10 (unit not given)
Method in brief: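 0.2 nM enzyme with 1.0 μM UDP-3-O-(R-3-hydroxymyristoyl)-N-acetylglucosamine in 25 mM HEPES pH 7.3, 150 mM NaCl, 2.0 mM DTT, 0.01% BSA, 2% DMSO; 60 min at room temperature, quenched with HCl. Substrate and product quantified by RapidFire mass spectrometry; percent conversion gives percent inhibition versus DMSO control.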

Compound	LpxC enzyme assay rating (% inhibition at indicated concentrations)
C[C@@H](O)[C@H](NC(=O)[C@H](O)[C@@H](O)C(=O)N(C)C)C(=O)Nc1ccc(C#Cc2ccccc2)cc1 [Compound 78]	C (less than 10% inhibition)
CN(C)C(=O)[C@H](O)[C@@H](O)C(=O)Nc1ccccc1C#Cc1ccccc1 [Compound 80]	C (less than 10% inhibition)
CN(C)C(=O)[C@H](O)[C@@H](O)C(=O)Nc1cccc(C#Cc2ccccc2)c1 [Compound 81]	C (less than 10% inhibition)
CN(C)C(=O)[C@H](O)[C@@H](O)C(=O)Nc1ccc(-c2ccc3ccccc3c2)cc1 [Compound 82]	C (less than 10% inhibition)
CN(C)C(=O)[C@H](O)[C@@H](O)C(=O)N(C)c1ccccc1C#Cc1ccccc1 [Compound 103]	C (less than 10% inhibition)
CN(C)C(=O)[C@H](O)[C@@H](O)C(=O)N(C)c1ccc(-c2ccc3ccccc3c2)cc1 [Compound 104]	C (less than 10% inhibition)

same assay, conditions: concentration 0.20 (unit not given)

Compound	LpxC enzyme assay rating (% inhibition at indicated concentrations)
C[C@@H](O)[C@H](NC(=O)[C@H](O)[C@@H](O)C(=O)N(C)C)C(=O)Nc1ccc(C#Cc2ccccc2)cc1 [Compound 78]	C (less than 10% inhibition)
CN(C)C(=O)[C@H](O)[C@@H](O)C(=O)Nc1ccccc1C#Cc1ccccc1 [Compound 80]	C (less than 10% inhibition)
CN(C)C(=O)[C@H](O)[C@@H](O)C(=O)Nc1cccc(C#Cc2ccccc2)c1 [Compound 81]	C (less than 10% inhibition)
CN(C)C(=O)[C@H](O)[C@@H](O)C(=O)Nc1ccc(-c2ccc3ccccc3c2)cc1 [Compound 82]	B (10-30% inhibition)
CN(C)C(=O)[C@H](O)[C@@H](O)C(=O)N(C)c1ccccc1C#Cc1ccccc1 [Compound 103]	C (less than 10% inhibition)
CN(C)C(=O)[C@H](O)[C@@H](O)C(=O)N(C)c1ccc(-c2ccc3ccccc3c2)cc1 [Compound 104]	C (less than 10% inhibition)

same assay, conditions: concentration 0.39 (unit not given)

Compound	LpxC enzyme assay rating (% inhibition at indicated concentrations)
C[C@@H](O)[C@H](NC(=O)[C@H](O)[C@@H](O)C(=O)N(C)C)C(=O)Nc1ccc(C#Cc2ccccc2)cc1 [Compound 78]	B (10-30% inhibition)
CN(C)C(=O)[C@H](O)[C@@H](O)C(=O)Nc1ccccc1C#Cc1ccccc1 [Compound 80]	C (less than 10% inhibition)
CN(C)C(=O)[C@H](O)[C@@H](O)C(=O)Nc1cccc(C#Cc2ccccc2)c1 [Compound 81]	C (less than 10% inhibition)
CN(C)C(=O)[C@H](O)[C@@H](O)C(=O)Nc1ccc(-c2ccc3ccccc3c2)cc1 [Compound 82]	C (less than 10% inhibition)
CN(C)C(=O)[C@H](O)[C@@H](O)C(=O)N(C)c1ccccc1C#Cc1ccccc1 [Compound 103]	B (10-30% inhibition)
CN(C)C(=O)[C@H](O)[C@@H](O)C(=O)N(C)c1ccc(-c2ccc3ccccc3c2)cc1 [Compound 104]	C (less than 10% inhibition)

same assay, conditions: concentration 0.78 (unit not given)

Compound	LpxC enzyme assay rating (% inhibition at indicated concentrations)
C[C@@H](O)[C@H](NC(=O)[C@H](O)[C@@H](O)C(=O)N(C)C)C(=O)Nc1ccc(C#Cc2ccccc2)cc1 [Compound 78]	C (less than 10% inhibition)
CN(C)C(=O)[C@H](O)[C@@H](O)C(=O)Nc1ccccc1C#Cc1ccccc1 [Compound 80]	C (less than 10% inhibition)
CN(C)C(=O)[C@H](O)[C@@H](O)C(=O)Nc1cccc(C#Cc2ccccc2)c1 [Compound 81]	C (less than 10% inhibition)
CN(C)C(=O)[C@H](O)[C@@H](O)C(=O)Nc1ccc(-c2ccc3ccccc3c2)cc1 [Compound 82]	C (less than 10% inhibition)
CN(C)C(=O)[C@H](O)[C@@H](O)C(=O)N(C)c1ccccc1C#Cc1ccccc1 [Compound 103]	B (10-30% inhibition)
CN(C)C(=O)[C@H](O)[C@@H](O)C(=O)N(C)c1ccc(-c2ccc3ccccc3c2)cc1 [Compound 104]	C (less than 10% inhibition)

same assay, conditions: concentration 1.56 (unit not given)

Compound	LpxC enzyme assay rating (% inhibition at indicated concentrations)
C[C@@H](O)[C@H](NC(=O)[C@H](O)[C@@H](O)C(=O)N(C)C)C(=O)Nc1ccc(C#Cc2ccccc2)cc1 [Compound 78]	C (less than 10% inhibition)
CN(C)C(=O)[C@H](O)[C@@H](O)C(=O)Nc1ccccc1C#Cc1ccccc1 [Compound 80]	C (less than 10% inhibition)
CN(C)C(=O)[C@H](O)[C@@H](O)C(=O)Nc1cccc(C#Cc2ccccc2)c1 [Compound 81]	C (less than 10% inhibition)
CN(C)C(=O)[C@H](O)[C@@H](O)C(=O)Nc1ccc(-c2ccc3ccccc3c2)cc1 [Compound 82]	C (less than 10% inhibition)
CN(C)C(=O)[C@H](O)[C@@H](O)C(=O)N(C)c1ccccc1C#Cc1ccccc1 [Compound 103]	B (10-30% inhibition)
CN(C)C(=O)[C@H](O)[C@@H](O)C(=O)N(C)c1ccc(-c2ccc3ccccc3c2)cc1 [Compound 104]	C (less than 10% inhibition)

same assay, conditions: concentration 3.13 (unit not given)

Compound	LpxC enzyme assay rating (% inhibition at indicated concentrations)
C[C@@H](O)[C@H](NC(=O)[C@H](O)[C@@H](O)C(=O)N(C)C)C(=O)Nc1ccc(C#Cc2ccccc2)cc1 [Compound 78]	B (10-30% inhibition)
CN(C)C(=O)[C@H](O)[C@@H](O)C(=O)Nc1ccccc1C#Cc1ccccc1 [Compound 80]	C (less than 10% inhibition)
CN(C)C(=O)[C@H](O)[C@@H](O)C(=O)Nc1cccc(C#Cc2ccccc2)c1 [Compound 81]	C (less than 10% inhibition)
CN(C)C(=O)[C@H](O)[C@@H](O)C(=O)Nc1ccc(-c2ccc3ccccc3c2)cc1 [Compound 82]	B (10-30% inhibition)
CN(C)C(=O)[C@H](O)[C@@H](O)C(=O)N(C)c1ccccc1C#Cc1ccccc1 [Compound 103]	B (10-30% inhibition)
CN(C)C(=O)[C@H](O)[C@@H](O)C(=O)N(C)c1ccc(-c2ccc3ccccc3c2)cc1 [Compound 104]	C (less than 10% inhibition)

same assay, conditions: concentration 6.25 (unit not given)

Compound	LpxC enzyme assay rating (% inhibition at indicated concentrations)
C[C@@H](O)[C@H](NC(=O)[C@H](O)[C@@H](O)C(=O)N(C)C)C(=O)Nc1ccc(C#Cc2ccccc2)cc1 [Compound 78]	B (10-30% inhibition)
CN(C)C(=O)[C@H](O)[C@@H](O)C(=O)Nc1ccccc1C#Cc1ccccc1 [Compound 80]	C (less than 10% inhibition)
CN(C)C(=O)[C@H](O)[C@@H](O)C(=O)Nc1cccc(C#Cc2ccccc2)c1 [Compound 81]	C (less than 10% inhibition)
CN(C)C(=O)[C@H](O)[C@@H](O)C(=O)Nc1ccc(-c2ccc3ccccc3c2)cc1 [Compound 82]	B (10-30% inhibition)
CN(C)C(=O)[C@H](O)[C@@H](O)C(=O)N(C)c1ccccc1C#Cc1ccccc1 [Compound 103]	C (less than 10% inhibition)
CN(C)C(=O)[C@H](O)[C@@H](O)C(=O)N(C)c1ccc(-c2ccc3ccccc3c2)cc1 [Compound 104]	C (less than 10% inhibition)

same assay, conditions: concentration 12.50 (unit not given)

Compound	LpxC enzyme assay rating (% inhibition at indicated concentrations)
C[C@@H](O)[C@H](NC(=O)[C@H](O)[C@@H](O)C(=O)N(C)C)C(=O)Nc1ccc(C#Cc2ccccc2)cc1 [Compound 78]	B (10-30% inhibition)
CN(C)C(=O)[C@H](O)[C@@H](O)C(=O)Nc1ccccc1C#Cc1ccccc1 [Compound 80]	B (10-30% inhibition)
CN(C)C(=O)[C@H](O)[C@@H](O)C(=O)Nc1cccc(C#Cc2ccccc2)c1 [Compound 81]	C (less than 10% inhibition)
CN(C)C(=O)[C@H](O)[C@@H](O)C(=O)Nc1ccc(-c2ccc3ccccc3c2)cc1 [Compound 82]	A (greater than 30% inhibition)
CN(C)C(=O)[C@H](O)[C@@H](O)C(=O)N(C)c1ccccc1C#Cc1ccccc1 [Compound 103]	B (10-30% inhibition)
CN(C)C(=O)[C@H](O)[C@@H](O)C(=O)N(C)c1ccc(-c2ccc3ccccc3c2)cc1 [Compound 104]	C (less than 10% inhibition)

same assay, conditions: concentration 25 (unit not given)

Compound	LpxC enzyme assay rating (% inhibition at indicated concentrations)
C[C@@H](O)[C@H](NC(=O)[C@H](O)[C@@H](O)C(=O)N(C)C)C(=O)Nc1ccc(C#Cc2ccccc2)cc1 [Compound 78]	A (greater than 30% inhibition)
CN(C)C(=O)[C@H](O)[C@@H](O)C(=O)Nc1ccccc1C#Cc1ccccc1 [Compound 80]	C (less than 10% inhibition)
CN(C)C(=O)[C@H](O)[C@@H](O)C(=O)Nc1cccc(C#Cc2ccccc2)c1 [Compound 81]	C (less than 10% inhibition)
CN(C)C(=O)[C@H](O)[C@@H](O)C(=O)Nc1ccc(-c2ccc3ccccc3c2)cc1 [Compound 82]	A (greater than 30% inhibition)
CN(C)C(=O)[C@H](O)[C@@H](O)C(=O)N(C)c1ccccc1C#Cc1ccccc1 [Compound 103]	C (less than 10% inhibition)
CN(C)C(=O)[C@H](O)[C@@H](O)C(=O)N(C)c1ccc(-c2ccc3ccccc3c2)cc1 [Compound 104]	B (10-30% inhibition)

From US7553864B2, “Compounds for the treatment of inflammatory disorders and microbial diseases” (Schering Corporation, priority 2005, dated 2009)
